The values below are quoted from earlier work in PubChem BioAssay AID1259409 (Chemical Carcinogenesis Research Information System (CCRIS), 2018).

In the data set the test system is rodent chemically induced tumor inhibition, incidence and multiplicity. The data set can be described thus: CCRIS tumor inhibitor studies. Particulars: Route [Inhibitor]: ORAL, Species: RAT, Promoter: NONE USED.

For `CC1=C(/C=C/C(C)=C/C=C/C(C)=C/C(=O)NCCO)C(C)(C)CCC1`, the “tumour outcome (control, treated, inhibition, significance)” value is, setting by setting: (Carcinogen: L-AZASERINE, 115-02-6, Dose [Inhibitor]: 2 MMOL/KG DIET DAILY FOR 336 D OUT OF 358 D STARTING 1 WK AFTER COMPLETION OF CARCINOGEN TREATMENT (STUDY DURATION: 66 W, Strain/Sex: WISTAR-LEWIS/FEMALE, Target Tissue: Type of Lesion: PANCREAS: ADENOMA, Dose [Carcinogen]: 10 MG/KG BW 1/WK FOR 15 WK) 50%, 13%, 74%, not significant; (Carcinogen: L-AZASERINE, 115-02-6, Dose [Inhibitor]: 2 MMOL/KG DIET DAILY FOR 336 D OUT OF 358 D STARTING 1 WK AFTER COMPLETION OF CARCINOGEN TREATMENT (STUDY DURATION: 66 W, Strain/Sex: WISTAR-LEWIS/FEMALE, Target Tissue: Type of Lesion: PANCREAS: CARCINOMA IN SITU, Dose [Carcinogen]: 10 MG/KG BW 1/WK FOR 15 WK) 8%, 13%, -63%, not significant; (Carcinogen: L-AZASERINE, 115-02-6, Dose [Inhibitor]: 2 MMOL/KG DIET DAILY FOR 336 D OUT OF 358 D STARTING 1 WK AFTER COMPLETION OF CARCINOGEN TREATMENT (STUDY DURATION: 66 W, Strain/Sex: WISTAR-LEWIS/FEMALE, Target Tissue: Type of Lesion: PANCREAS: CARCINOMA, Dose [Carcinogen]: 10 MG/KG BW 1/WK FOR 15 WK STARTING 15 WK PRIOR TO AGENT TREATMENT) “?/24 (13%), ?/24 (0%), 100%, not significant”; (Carcinogen: L-AZASERINE, 115-02-6, Dose [Inhibitor]: 2 MMOL/KG DIET DAILY FOR 336 D OUT OF 358 D STARTING 1 WK AFTER COMPLETION OF CARCINOGEN TREATMENT (STUDY DURATION: 66 W, Strain/Sex: WISTAR-LEWIS/MALE, Target Tissue: Type of Lesion: PANCREAS: ADENOMA, Dose [Carcinogen]: 10 MG/KG BW 1/WK FOR 15 WK) 25%, 28%, -12%, not significant; (Carcinogen: L-AZASERINE, 115-02-6, Dose [Inhibitor]: 2 MMOL/KG DIET DAILY FOR 336 D OUT OF 358 D STARTING 1 WK AFTER COMPLETION OF CARCINOGEN TREATMENT (STUDY DURATION: 66 W, Strain/Sex: WISTAR-LEWIS/MALE, Target Tissue: Type of Lesion: PANCREAS: CARCINOMA IN SITU, Dose [Carcinogen]: 10 MG/KG BW 1/WK FOR 15 WK) 29%, 44%, -52%, not significant; (Carcinogen: L-AZASERINE, 115-02-6, Dose [Inhibitor]: 2 MMOL/KG DIET DAILY FOR 336 D OUT OF 358 D STARTING 1 WK AFTER COMPLETION OF CARCINOGEN TREATMENT (STUDY DURATION: 66 W, Strain/Sex: WISTAR-LEWIS/MALE, Target Tissue: Type of Lesion: PANCREAS: CARCINOMA, Dose [Carcinogen]: 10 MG/KG BW 1/WK FOR 15 WK) 46%, 4%, 91%, p<0.05. For the same compound, the “tumour outcome (control, treated, inhibition, significance)” value (Carcinogen: L-AZASERINE, 115-02-6, Dose [Inhibitor]: 2 MMOL/KG DIET DAILY FOR 336 D OUT OF 358 D STARTING 1 WK AFTER COMPLETION OF CARCINOGEN TREATMENT (STUDY DURATION: 66 W, Strain/Sex: WISTAR-LEWIS/MALE, Target Tissue: Type of Lesion: PANCREAS: NEOPLASM, Dose [Carcinogen]: 10 MG/KG BW 1/WK FOR 15 WK) is 100%, 76%, 24%, not significant; the “tumour outcome (control, treated, inhibition, significance)” value (Carcinogen: N-(4-(5-NITRO-2-FURYL)-2-THIAZOLYL)FORMAMIDE, 24554-26-5, Dose [Inhibitor]: 343 MG/KG DIET DAILY FOR 39 WK STARTING ONE WK FOLLOWING THE TERMINATION OF CARCINOGEN ADMINISTRATION (STUDY DURATION: 5, Strain/Sex: F344/FEMALE, Target Tissue: Type of Lesion: URINARY BLADDER: CARCINOMA, Dose [Carcinogen]: 2 G/KG IN DIET DAILY FOR 10 WK) was 105/200 (53%), 67/100 (67%), -26%, p 0.0167; the “tumour outcome (control, treated, inhibition, significance)” value (Carcinogen: N-(4-(5-NITRO-2-FURYL)-2-THIAZOLYL)FORMAMIDE, 24554-26-5, Dose [Inhibitor]: 343 MG/KG/D IN DIET FOR 39 WK STARTING 1 WK POST CARCINOGEN TREATMENT (STUDY DURATION: 50 WK), Strain/Sex: F344/FEMALE, Target Tissue: Type of Lesion: URINARY BLADDER: CARCINOMA, Dose [Carcinogen]: 2 G/KG/D IN DIET FOR 10 WK) is given as 105/200 (53%), 67/100 (67%), -26%, p 0.0167; the “tumour outcome (control, treated, inhibition, significance)” value (Carcinogen: N-(4-(5-NITRO-2-FURYL)-2-THIAZOLYL)FORMAMIDE, 24554-26-5, Dose [Inhibitor]: 343 MG/KG/D IN DIET FOR 39 WK STARTING 1 WK POST CARCINOGEN TREATMENT (STUDY DURATION: 50 WK), Strain/Sex: F344/FEMALE, Target Tissue: Type of Lesion: URINARY BLADDER: PAPILLOMA, Dose [Carcinogen]: 2 G/KG/D IN DIET FOR 10 WK) is reported as 15/200 (7.5%), 24/100 (24%), -220%, p 0.00006; the “tumour outcome (control, treated, inhibition, significance)” value (Carcinogen: N-(4-(5-NITRO-2-FURYL)-2-THIAZOLYL)FORMAMIDE, 24554-26-5, Dose [Inhibitor]: 686 MG/KG DIET DAILY FOR 39 WK STARTING ONE WK FOLLOWING THE TERMINATION OF CARCINOGEN ADMINISTRATION (STUDY DURATION: 5, Strain/Sex: F344/FEMALE, Target Tissue: Type of Lesion: URINARY BLADDER: CARCINOMA, Dose [Carcinogen]: 2 G/KG IN DIET DAILY FOR 10 WK) is recorded as 105/200 (53%), 49/100 (49%), 8%, p 0.5657; the “tumour outcome (control, treated, inhibition, significance)” value (Carcinogen: N-(4-(5-NITRO-2-FURYL)-2-THIAZOLYL)FORMAMIDE, 24554-26-5, Dose [Inhibitor]: 686 MG/KG DIET DAILY FOR 39 WK STARTING ONE WK FOLLOWING THE TERMINATION OF CARCINOGEN ADMINISTRATION (STUDY DURATION: 5, Strain/Sex: F344/FEMALE, Target Tissue: Type of Lesion: URINARY BLADDER: PAPILLOMA, Dose [Carcinogen]: 2 G/KG IN DIET DAILY FOR 10 WK) is 15/200 (8%), 17/100 (17%), -113%, p 0.012.
